Results taken from ChEMBL document CHEMBL3875162, “Synthesis and biological evaluation of new benzimidazole-thiazolidinedione hybrids as potential cytotoxic and apoptosis inducing agents” (Eur J Med Chem, 2016).
The source made the active and inactive calls. The rule behind the calls is not given here.

What was measured:
[1] = Induction of apoptosis in human A549 cells assessed as irregular distribution of chromatin at 10 to 15 uM after 24 hrs by acridine orange/ethidium bromide-dual staining based fluorescence microscopic method; type: functional, cell-based
[2] = Cell cycle arrest in human A549 cells assessed as accumulation at G2/M phase at 5 uM after 24 hrs by propidium iodide staining-based flow cytometry (reference value: 23.3%); type: functional
[3] = Cytotoxicity against human DU145 cells assessed as cell growth inhibition after 48 hrs by MTT assay; type: functional, cell-based; conditions: DU-145, 48 h
A549 [4] = assay: Induction of apoptosis in human A549 cells assessed as late apoptotic cells at 15 uM after 24 hrs by Annexin V-FITC/propidium iodide staining based flow cytometry (reference value: 0.8%); type: functional
A549 [5] = assay: Induction of apoptosis in human A549 cells assessed as nuclear condensation at 5 to 15 uM after 24 hrs by DAPI staining based fluorescence microscopic method; type: functional, cell-based
A549 [6] = assay: Induction of mitochondrial membrane potential loss in human A549 cells at 10 uM after 24 hrs by rhodamine-123 staining based flow cytometry relative to control; type: functional
[7] = Cell cycle arrest in human A549 cells assessed as accumulation at S phase at 15 uM after 24 hrs by propidium iodide staining-based flow cytometry (reference value: 11.5%); type: functional
A549 [8] = assay: Induction of apoptosis in human A549 cells assessed as cell membrane blebbing at 5 uM after 24 hrs by acridine orange/ethidium bromide-dual staining based fluorescence microscopic method; type: functional
[9] = Cell cycle arrest in human A549 cells assessed as accumulation at G2/M phase at 10 uM after 24 hrs by propidium iodide staining-based flow cytometry (reference value: 23.3%); type: functional
A549 [10] = assay: Induction of apoptosis in human A549 cells assessed as early apoptotic cells at 15 uM after 24 hrs by Annexin V-FITC/propidium iodide staining based flow cytometry (reference value: 2.6%); type: functional
A549 [11] = assay: Induction of apoptosis in human A549 cells assessed as early apoptotic cells at 10 uM after 24 hrs by Annexin V-FITC/propidium iodide staining based flow cytometry (reference value: 2.6%); type: functional
A549 [12] = assay: Induction of apoptosis in human A549 cells after 24 hrs by Annexin V-FITC/propidium iodide staining based flow cytometry; type: functional, cell-based

**Q.** For Cn1c(/C=C2\SC(=O)N(CC(=O)Nc3nc(-c4ccccc4)cs3)C2=O)nc2ccccc21, which Activity [1] is on record?
**A.** The Activity was “Active”.

**Q.** What about the Activity [2] of the same compound?
**A.** Its Activity is 41.4%.

**Q.** What about the IC50 [3] of the same compound?
**A.** Its IC50 is 31.4 µM.

**Q.** What about the Activity (A549 [4]) of the same compound?
**A.** Its Activity is 11.9%.

**Q.** What about the Activity (A549 [5]) of the same compound?
**A.** Its Activity is “Active”.

**Q.** What about the Activity (A549 [6]) of the same compound?
**A.** The Activity was 30.6%.

**Q.** What about the Activity [7] of the same compound?
**A.** The Activity was 13.5%.

**Q.** What about the Activity (A549 [8]) of the same compound?
**A.** Its Activity is “Active”.

**Q.** What about the Activity [9] of the same compound?
**A.** Its Activity is 49.3%.

**Q.** And the Activity (A549 [10])?
**A.** Its Activity is 19.4%.

**Q.** What about the Activity (A549 [11]) of the same compound?
**A.** Its Activity is 15.8%.

**Q.** And the Activity (A549 [12])?
**A.** Its Activity is “Dose-dependent effect”.
